Assay results as given in patent US9322066B2, “Predictors for cancer treatment” (priority 2011, dated 2016).

Test system: relapsed or refractory, rituximab-naive or -sensitive follicular B-cell NHL
Experiment: Time to next anti-lymphoma therapy, Vc-R vs rituximab study, by biomarker
Assay type: in vivo, human
Set-up: Median, Time to Next Anti-Lymphoma Therapy / Time to Next Anti-Lymphoma Therapy, Median: unit not given here
Description: Non-Hodgkin lymphoma (NHL) encompasses several unique malignant lymphoid disease entities that vary in clinical behavior, morphologic appearance, immunologic, and molecular phenotype. […] A randomized, open-label, active-controlled, multicenter, multinational, prospective study to compare the efficacy and safety of the combination of bortezomib and rituximab (Vc-R) to single-agent rituximab in subjects who have relapsed or refractory, rituximab-naive or -sensitive follicular B-cell NHL was performed.
Subjects were centrally randomized to Treatment Groups A (Vc-R) or B (rituximab) in a 1:1 ratio taking into account the following stratification factors: • Follicular Lymphoma International Prognostic Index (FLIPI) score (low [0 or 1 factor], intermediate [2 factors], high [≧3 factors]); • Prior rituximab therapy (yes, no); • Time since last dose of anti-lymphoma therapy (≦1 year, >1 year); • Region (United States/Canada, European Union, Rest of World).
The following clinical endpoints were included in the analysis within each treatment group and an overall comparison was made with the biomarker-related endpoints: Progression-free survival, defined as the interval between the date of randomization and the date of progressive disease (PD) or death, whichever is first reported in the ITT population; overall survival; overall response rate (complete response [CR]+CR unconfirmed [CRu]+partial response [PR]); overall CR rate (CR+CRu); duration of response; time to next anti-lymphoma therapy; and treatment free interval.

[1] = 20S % NUCLEAR STAINING: 0-20, Female, IRC Review
[2] = 20S % NUCLEAR STAINING: 60-70, Male, IRC Review
[3] = 20S % NUCLEAR STAINING: 60-70, Prior Rituximab Therapy, IRC Review
[4] = 20S INTENSITY CYTOPLASMIC SIGNAL: ≧3+, European Union, IRC Review
[5] = 20S INTENSITY CYTOPLASMIC SIGNAL: ≧3+, Male, IRC Review
[6] = BCL2/A43G: MND, subgroup White, IRC review
[7] = BCL2/C.-11C > T: MND, subgroup White, IRC review
[8] = BCL2/E29K: MND, subgroup White, IRC review
[9] = BCL2/P46L: MND, subgroup White, IRC review
[10] = BCL2/P46S: MND, subgroup White, IRC review
[11] = BCL2/P59L: MND, subgroup White, IRC review
[12] = BCL2/P59S: MND, subgroup White, IRC review
[13] = BCL2/Q52P: MND, subgroup White, IRC review
[14] = BCL2/R106H: MND, subgroup White, IRC review
[15] = CD68 OVERALL POSITIVE: 0-25, 2 Prior Lines of Therapy, IRC Review
[16] = CD68 OVERALL POSITIVE: 0-25, >1 year since last anti-lymphoma treatment, IRC Review
[17] = CD68 OVERALL POSITIVE: 0-25, Ann Arbor Stage III, IRC Review
[18] = CD68 OVERALL POSITIVE: 0-25, Ann Arbor Stage IV, IRC Review
[19] = CD68 OVERALL POSITIVE: 0-25, European Union, IRC Review
[20] = CD68 OVERALL POSITIVE: 0-25, Female, IRC Review
[21] = CD68 OVERALL POSITIVE: 0-25, Intermediate FLIPI Score, IRC Review
[22] = CD68 OVERALL POSITIVE: 0-25, Low FLIPI Score, IRC Review
[23] = CD68 OVERALL POSITIVE: 0-25, Male, IRC Review
[24] = CD68 OVERALL POSITIVE: 0-25, No High Tumor Burden, IRC Review
[25] = CD68 OVERALL POSITIVE: 0-25, No Prior Rituximab Therapy, IRC Review
[26] = CD68 OVERALL POSITIVE: 0-25, No Subgroup, IRC Review
[27] = CD68 OVERALL POSITIVE: 0-25, Prior Rituximab Therapy, IRC Review
[28] = CD68 OVERALL POSITIVE: 0-25, White, IRC Review
[29] = CD68 OVERALL POSITIVE: 0-25, ≦65 years old, IRC Review
[30] = CD68 OVERALL POSITIVE: >75, Male, IRC Review
[31] = CD68 POSITIVE FOLLICULAR: 0-25, >1 year since last anti-lymphoma treatment, IRC Review
[32] = CD68 POSITIVE FOLLICULAR: 0-25, Ann Arbor Stage III, IRC Review
[33] = CD68 POSITIVE FOLLICULAR: 0-25, Asian, IRC Review
[34] = CD68 POSITIVE FOLLICULAR: 0-25, Female, IRC Review
[35] = CD68 POSITIVE FOLLICULAR: 0-25, Intermediate FLIPI Score, IRC Review
[36] = CD68 POSITIVE FOLLICULAR: 0-25, No High Tumor Burden, IRC Review
[37] = CD68 POSITIVE FOLLICULAR: 0-25, No Prior Rituximab Therapy, IRC Review
[38] = CD68 POSITIVE FOLLICULAR: 0-25, No Subgroup, IRC Review
[39] = CD68 POSITIVE FOLLICULAR: 0-25, White, IRC Review
[40] = CD68 POSITIVE FOLLICULAR: 0-25, ≦65 years old, IRC Review
[41] = CD68 POSITIVE PERIFOLLICULAR: 0-25, 2 Prior Lines of Therapy, IRC Review
[42] = CD68 POSITIVE PERIFOLLICULAR: 0-25, >1 year since last anti-lymphoma treatment, IRC Review
[43] = CD68 POSITIVE PERIFOLLICULAR: 0-25, Ann Arbor Stage IV, IRC Review
[44] = CD68 POSITIVE PERIFOLLICULAR: 0-25, Female, IRC Review
[45] = CD68 POSITIVE PERIFOLLICULAR: 0-25, Intermediate FLIPI Score, IRC Review
[46] = CD68 POSITIVE PERIFOLLICULAR: 0-25, No High Tumor Burden, IRC Review
[47] = CD68 POSITIVE PERIFOLLICULAR: 0-25, No Prior Rituximab Therapy, IRC Review
[48] = CD68 POSITIVE PERIFOLLICULAR: 0-25, No Subgroup, IRC Review

Substance: rituximab
- Evt/N, Time to Next Anti-Lymphoma Therapy [1]: 35/61
- Median, Time to Next Anti-Lymphoma Therapy [1]: 568
- Evt/N, Time to Next Anti-Lymphoma Therapy [2]: 14/16
- Median, Time to Next Anti-Lymphoma Therapy [2]: 247
- Evt/N, Time to Next Anti-Lymphoma Therapy [3]: 17/21
- Median, Time to Next Anti-Lymphoma Therapy [3]: 343
- Evt/N, Time to Next Anti-Lymphoma Therapy [4]: 34/52
- Median, Time to Next Anti-Lymphoma Therapy [4]: 533
- Evt/N, Time to Next Anti-Lymphoma Therapy [5]: 20/27
- Median, Time to Next Anti-Lymphoma Therapy [5]: 421
- Median, Time to Next Anti-Lymphoma Therapy (BCL2/A43G: MND, subgroup Ann Arbor Stage IV, IRC review): 450
- Evt/N, Time to Next Anti-Lymphoma Therapy [6]: 89/140
- Median, Time to Next Anti-Lymphoma Therapy [6]: 504
- Median, Time to Next Anti-Lymphoma Therapy (BCL2/C.-11C > T: MND, subgroup Ann Arbor Stage IV, IRC review): 450
- Evt/N, Time to Next Anti-Lymphoma Therapy [7]: 110/168
- Median, Time to Next Anti-Lymphoma Therapy [7]: 504
- Evt/N, Time to Next Anti-Lymphoma Therapy [8]: 83/129
- Median, Time to Next Anti-Lymphoma Therapy [8]: 485
- Evt/N, Time to Next Anti-Lymphoma Therapy [9]: 74/117
- Median, Time to Next Anti-Lymphoma Therapy [9]: 505
- Evt/N, Time to Next Anti-Lymphoma Therapy [10]: 81/130
- Median, Time to Next Anti-Lymphoma Therapy [10]: 505
- Evt/N, Time to Next Anti-Lymphoma Therapy [11]: 80/129
- Median, Time to Next Anti-Lymphoma Therapy [11]: 533
- Evt/N, Time to Next Anti-Lymphoma Therapy [12]: 81/128
- Median, Time to Next Anti-Lymphoma Therapy [12]: 505
- Evt/N, Time to Next Anti-Lymphoma Therapy [13]: 85/135
- Median, Time to Next Anti-Lymphoma Therapy [13]: 504
- Evt/N, Time to Next Anti-Lymphoma Therapy [14]: 93/140
- Median, Time to Next Anti-Lymphoma Therapy [14]: 501
- time to next treatment interval (Biomarker positive (PSMB1 P11A heterozygote and CD68 Low)): 14.8 mo
- Evt/N, Time to Next Anti-Lymphoma Therapy [15]: 6/8
- Median, Time to Next Anti-Lymphoma Therapy [15]: 204
- Evt/N, Time to Next Anti-Lymphoma Therapy [16]: 17/26
- Median, Time to Next Anti-Lymphoma Therapy [16]: 409
- Evt/N, Time to Next Anti-Lymphoma Therapy [17]: 12/16
- Median, Time to Next Anti-Lymphoma Therapy [17]: 276
- Evt/N, Time to Next Anti-Lymphoma Therapy [18]: 15/22
- Median, Time to Next Anti-Lymphoma Therapy [18]: 434
- Evt/N, Time to Next Anti-Lymphoma Therapy [19]: 14/22
- Median, Time to Next Anti-Lymphoma Therapy [19]: 374
- Evt/N, Time to Next Anti-Lymphoma Therapy [20]: 16/26
- Median, Time to Next Anti-Lymphoma Therapy [20]: 434
- Evt/N, Time to Next Anti-Lymphoma Therapy [21]: 7/11
- Median, Time to Next Anti-Lymphoma Therapy [21]: 485
- Evt/N, Time to Next Anti-Lymphoma Therapy [22]: 8/10
- Median, Time to Next Anti-Lymphoma Therapy [22]: 422
- Evt/N, Time to Next Anti-Lymphoma Therapy [23]: 14/18
- Median, Time to Next Anti-Lymphoma Therapy [23]: 251
- Evt/N, Time to Next Anti-Lymphoma Therapy [24]: 8/14
- Median, Time to Next Anti-Lymphoma Therapy [24]: 552
- Evt/N, Time to Next Anti-Lymphoma Therapy [25]: 12/19
- Median, Time to Next Anti-Lymphoma Therapy [25]: 533
- Evt/N, Time to Next Anti-Lymphoma Therapy [26]: 30/44
- Median, Time to Next Anti-Lymphoma Therapy [26]: 409
- Evt/N, Time to Next Anti-Lymphoma Therapy [27]: 18/25
- Median, Time to Next Anti-Lymphoma Therapy [27]: 235
- Evt/N, Time to Next Anti-Lymphoma Therapy [28]: 24/35
- Median, Time to Next Anti-Lymphoma Therapy [28]: 409
- Evt/N, Time to Next Anti-Lymphoma Therapy [29]: 24/34
- Median, Time to Next Anti-Lymphoma Therapy [29]: 374
- Evt/N, Time to Next Anti-Lymphoma Therapy (CD68 OVERALL POSITIVE: 51-75, No High Tumor Burden, IRC Review): 10/25
- Evt/N, Time to Next Anti-Lymphoma Therapy [30]: 8/9
- Median, Time to Next Anti-Lymphoma Therapy [30]: 427
- Evt/N, Time to Next Anti-Lymphoma Therapy [31]: 22/34
- Median, Time to Next Anti-Lymphoma Therapy [31]: 550
- Evt/N, Time to Next Anti-Lymphoma Therapy [32]: 19/24
- Median, Time to Next Anti-Lymphoma Therapy [32]: 332
- Evt/N, Time to Next Anti-Lymphoma Therapy [33]: 5/6
- Median, Time to Next Anti-Lymphoma Therapy [33]: 220
- Evt/N, Time to Next Anti-Lymphoma Therapy [34]: 23/37
- Median, Time to Next Anti-Lymphoma Therapy [34]: 462
- Evt/N, Time to Next Anti-Lymphoma Therapy [35]: 14/20
- Median, Time to Next Anti-Lymphoma Therapy [35]: 421
- Evt/N, Time to Next Anti-Lymphoma Therapy [36]: 14/22
- Median, Time to Next Anti-Lymphoma Therapy [36]: 573
- Evt/N, Time to Next Anti-Lymphoma Therapy [37]: 23/36
- Median, Time to Next Anti-Lymphoma Therapy [37]: 485
- Evt/N, Time to Next Anti-Lymphoma Therapy [38]: 40/60
- Median, Time to Next Anti-Lymphoma Therapy [38]: 462
- Evt/N, Time to Next Anti-Lymphoma Therapy [39]: 32/48
- Median, Time to Next Anti-Lymphoma Therapy [39]: 462
- Evt/N, Time to Next Anti-Lymphoma Therapy [40]: 33/46
- Median, Time to Next Anti-Lymphoma Therapy [40]: 332
- Evt/N, Time to Next Anti-Lymphoma Therapy [41]: 6/8
- Median, Time to Next Anti-Lymphoma Therapy [41]: 171
- Evt/N, Time to Next Anti-Lymphoma Therapy [42]: 15/24
- Median, Time to Next Anti-Lymphoma Therapy [42]: 533
- Evt/N, Time to Next Anti-Lymphoma Therapy [43]: 11/15
- Median, Time to Next Anti-Lymphoma Therapy [43]: 374
- Evt/N, Time to Next Anti-Lymphoma Therapy [44]: 19/28
- Median, Time to Next Anti-Lymphoma Therapy [44]: 374
- Evt/N, Time to Next Anti-Lymphoma Therapy [45]: 7/13
- Median, Time to Next Anti-Lymphoma Therapy [45]: 501
- Evt/N, Time to Next Anti-Lymphoma Therapy [46]: 8/13
- Median, Time to Next Anti-Lymphoma Therapy [46]: 501
- Evt/N, Time to Next Anti-Lymphoma Therapy [47]: 12/18
- Median, Time to Next Anti-Lymphoma Therapy [47]: 533
- Evt/N, Time to Next Anti-Lymphoma Therapy [48]: 26/39
- Median, Time to Next Anti-Lymphoma Therapy [48]: 374
